Test results as given in patent publication US20160206597A1, “New Use” (priority 2013, published 2016).

Experiments:
[1] = test system: patients with chronic heart failure with preserved left-ventricular ejection fraction (HF-PEF); assay: Echocardiographic parameters in the 36-week HF-PEF study; format: in vivo, human; conditions: for LA Volume Index, Δ from Baseline / LA Volume, Δ from Baseline / LA dimension, Δ from Baseline / LV mass index, Δ from Baseline / Relative wall thickness, Δ from Baseline: at 36 weeks
Experimental: Echocardiographic studies are performed at screening, randomization, at week 12, and week 36 or at end of study or early termination visits. Echocardiograms performed at screening are evaluated by local readers for qualifying information. All other echocardiograms are only performed in patients meeting NT-proBNP entry criterion and are evaluated centrally. For assessment of global ventricular size and function, left ventricular end-diastolic and end-systolic volumes are obtained utilizing the Simpson's rule method and left ventricular ejection fraction is derived in the usual fashion. Maximal left atrial dimension is measured in the parasternal long-axis view, and left atrial volume is assessed with the Simpson's rule method and indexed to body surface area. Measurements are made in triplicate in accordance with the recommendations of the American Society of Echocardiography. Blood pressure and heart rate are measured at all study visits with a calibrated standard sphygmomanometer and appropriate size cuff. The use of concomitant medication is recorded at each study visit.

[2] = test system: patients with chronic heart failure with preserved left-ventricular ejection fraction (HF-PEF); assay: Safety and tolerability in the 36-week HF-PEF study; conditions: 36-week study
Experimental: (§2) Eligible patients are enrolled into a 2-week, single-blind placebo run-in period, during which time they continue their background medications. ACE inhibitors and angiotensin receptor blockers are required to be discontinued 24 hours prior to randomization.
(§3) At the investigator's discretion, patients are allowed to stay on each titration dose for an additional week. […] Patients remain on these doses for the remainder of the study, although those not tolerating the maximum dose of study medication could be down-titrated to a lower dose at the Investigator's discretion and then re-challenged to the maximum dose of study medication, or remain on the lower dose.

[3] = test system: patients with chronic heart failure with preserved left-ventricular ejection fraction (HF-PEF); assay: Renal function parameters (eGFR, serum creatinine, urinary albumin creatinine ratio) in the 36-week HF-PEF study; format: in vivo, human; conditions: for urinary albumin creatinine ratio at baseline: baseline before treatment; for eGFR decrease over 36 weeks: p=0.007; for urinary albumin creatinine ratio at week 36: p=0.02 between groups
Experimental: The term “eGFR” refers to estimated glomerular filtration rate. Within the context of the present invention the eGFR is calculated by the Modification in Diet in Renal Disease (MDRD) formula, which is the one recommended by NICE and The Renal Association (UK), and which is based on the equation described in Levey A S, Bosch J P, Lewis J B, et al; “A more accurate method to estimate glomerular filtration rate from serum creatinine: a new prediction equation. Modification of Diet in Renal Disease Study Group.” Ann Intern Med. 1999 Mar. 16; 130(6):461-70.
(§1) Men and women aged 40 years or older with a left ventricular ejection fraction of 45% or above, and a documented history of heart failure with associated signs or symptoms (dyspnea on exertion, orthopnea, paroxysmal dyspnea, and peripheral edema) are eligible. Patients are required to have an NT-proBNP >400 pg/mL at screening, be on diuretic therapy, and have a systolic blood pressure less than 140 mm Hg, or 160 mm Hg or less if on three or more blood pressure medications at randomization. Additional inclusion criteria include an estimated glomerular filtration rate (eGFR) of at least 30 ml/min/1.73 m^2 at screening (calculated by the Modification of Diet in Renal Disease formula) and a potassium concentration of no more than 5.2 mmol/L.

[4] = test system: patients with chronic heart failure with preserved left-ventricular ejection fraction (HF-PEF); assay: NT-proBNP in 36-week randomized double-blind study of LCZ696 vs valsartan; format: in vivo, human; conditions: for NT-proBNP at 12 weeks / NT-proBNP at 36 weeks / NT-proBNP, Baseline (12-week analysis) / NT-proBNP, Baseline (36-week analysis): geometric mean; for NT-proBNP at 12 weeks / NT-proBNP at 36 weeks: LCZ696 200 mg or valsartan 160 mg twice daily; for NT-proBNP, Baseline (12-week analysis) / NT-proBNP, Baseline (36-week analysis): baseline before treatment; for NT-proBNP, Baseline (12-week analysis): patients evaluated at 12 weeks; for NT-proBNP, Baseline (36-week analysis): patients evaluated at 36 weeks; for Ratio of change in NT-proBNP (LCZ696/valsartan) at 12 weeks: baseline to 12 weeks, 95% CI 0.64-0.92, p = 0.005
From the text: as §1
Patients are excluded if they had prior left ventricular ejection fraction less than 45% at any time, isolated right heart failure due to pulmonary disease, dyspnea due to non-cardiac causes such as pulmonary disease, anemia, or severe obesity, primary valvular or myocardial diseases, or coronary artery or cerebrovascular disease requiring revascularization within 3 months of screening or likely to require revascularization during the trial.

[5] = test system: patients with chronic heart failure with preserved left-ventricular ejection fraction (HF-PEF); assay: NYHA class, clinical composite assessment and KCCQ in the 36-week HF-PEF study; conditions: p=0.05
Experimental: as §2, §3
The primary study endpoint is the change from baseline in NT-proBNP assessed at 12 weeks, and is analyzed using the last observation after baseline carried forward. […]
The clinical composite assessment is based on a composite of the NYHA functional classification, patient global assessment and major adverse clinical events. […] Patients are determined to be worse if at the endpoint visit they experienced a major adverse cardiac event during the double blind treatment or reported worsening of their NYHA class or patient global assessment. […]

Compound | LA Volume Index, Δ from Baseline [1] | LA Volume, Δ from Baseline [1] | LA dimension, Δ from Baseline [1] | LV mass index, Δ from Baseline [1] | Relative wall thickness, Δ from Baseline [1] | LA Volume Index, Baseline ([1]; baseline before treatment) | LA Volume, Baseline ([1]; baseline before treatment) | LA dimension, Baseline ([1]; baseline before treatment) | LV mass index, Baseline ([1]; baseline before treatment) | urinary albumin creatinine ratio at baseline [3] | eGFR decrease over 36 weeks [3] | urinary albumin creatinine ratio at week 36 [3] | NT-proBNP at 12 weeks ([4]; 12 weeks) | NT-proBNP at 36 weeks [4] | NT-proBNP, Baseline (12-week analysis) [4] | NT-proBNP, Baseline (36-week analysis) [4] | further results
CCCCC(=O)N(Cc1ccc(-c2ccccc2-c2nnn[nH]2)cc1)[C@H](C(=O)O)C(C)C [Valsartan, (S)—N-valeryl-N-{[2′-(1H-tetrazole-5-yl)-biphenyl-4-yl]-methyl}-valine, reference compound] | 0.31 ml/m^2 | 0.37 mL | −0.08 cm | −1.93 g/m^2 | +0.01% | 36.80 ml/m^2 | 68.28 mL | 3.73 cm | 79.45 g/m^2 | 2.0 mg/mmol | −5.2 mL/min per 1.73 m^2 | 2.0 mg/mmol | 835 pg/mL | 607 pg/mL | 862 pg/mL | 822 pg/mL | Adverse event atrial fibrillation (number of patients) [2]: 8 patients; Adverse event atrial fibrillation (percent of patients) [2]: 5.3%; Angio-oedema occurrence [2]: no patients; Deaths among serious adverse events [2]: two deaths; Patients with one or more serious adverse events (number) [2]: 30 patients; Patients with one or more serious adverse events (percent) [2]: 20%
trisodium [3-((1S,3R)-1-biphenyl-4-ylmethyl-3-ethoxycarbonyl-1-butylcarbamoyl) propionate-(S)-3′-methyl-2′-(pentanoyl{2″-(tetrazol-5-ylate)biphenyl-4′-ylmethyl}amino)butyrate]hemipentahydrate [LCZ696] | −2.61 ml/m^2 | -4.61 mL | −0.15 cm | −2.78 g/m^2 | +0.01% | 35.01 ml/m^2 | 65.26 mL | 3.68 cm | 76.56 g/m^2 | 1.9 mg/mmol | −1.6 mL/min per 1.73 m^2 | 2.9 mg/mmol | 605 pg/mL | 496 pg/mL | 783 pg/mL | 763 pg/mL | Left atrial volume, left atrial volume index (LAVI) and left atrial dimension, result in words ([1]; after 36 weeks of treatment, p=0.003, 0.007 and 0.034): reduced significantly; Relative wall thickness, Baseline ([1]; baseline before treatment): 0.37; NYHA class at 36 weeks compared with the valsartan group [5]: improvement in NYHA class; Preservation of renal function compared with valsartan ([3]; after 36 weeks of therapy, eGFR and creatinine data): better preserved renal function; eGFR, LSM of difference (95% CI), LCZ696 vs. Valsartan ([3]; at 36 weeks, P 0.0163): 3.46 (0.64, 6.27) mL/min/1.73 m^2; Serum creatinine, LSM of difference (95% CI), LCZ696 vs. Valsartan ([3]; at 36 weeks, P 0.0193): −4.83 (−8.87, −0.79) μmol/L; Reduction in NT-proBNP versus valsartan after adjustment for the change in blood pressure ([4]; 12 weeks, p=0.01): greater reduction; Early reduction in NT-proBNP compared with the valsartan group ([4]; after 4 weeks of treatment, p=0.063): not significant; Ratio of change in NT-proBNP (LCZ696/valsartan) at 12 weeks [4]: 0.77; Ratio of change in NT-proBNP (LCZ696/valsartan) at 12 weeks ([4]; listed as LZC696): 0.77 (95% CI; Ratio of change in NT-proBNP (LCZ696/valsartan) at 36 weeks ([4]; baseline to 36 weeks, 95% CI 0.65-1.09, p = 0.20): 0.85 (95% CI
